For one assay, the system named is young mice. Conditions: mouse, in vivo.
Assay [1] deals with postsynaptic acetylcholine (ACh) receptors. It is filed as cell-based, Aplysia californica.
For assay [2], the system named is cholinergic synapse of the buccal ganglion. In kind it is cell-based, Aplysia californica.
For another assay, the system named is presynaptic Ca2+ current. It is filed as cell-based, Aplysia californica.

The text below walks through data of US6307014A (priority 1998, dated 2001).

As to “Gla Cys Cys Gla Asp Gly BrW Cys Cys Thr Ala Ala OHP [P11.1]”, the “dampening of the action potential” value in the assay on young mice was “about 50%”. Besides, in assay [1], the “distribution of mean amplitudes of miniature postsynaptic currents with respect to mean amplitude of the LDIPSC” value is given as “identical to control values” and the “effect on postsynaptic acetylcholine (ACh) receptors” value was “no effect”. For the same substance, in assay [2], the “amplitude of the postsynaptic response (IPSC) evoked by a presynaptic action potential, % of the initial value” was found to be 40% and the “reduction in the number of released quanta” value is 60%. The “presynaptic Ca2+ current, % of the control value” in the assay on presynaptic Ca2+ current came to 70%.
